In brackets after ≈: the same amount, converted by molar mass. Several values for one entry are separate records, joined by “and”; a condition that tells them apart may be missing. Identical values can stand only once.
Legend:
[1] = Acute toxicity in ICR mouse assessed as kidney lesion at 183 to 960 mg/kg, iv administered as pluronic F127 formulation and measured for 14 days; format: organism-based; conditions: in vivo, 336 h, dose 183-960 mg/kg, time 14 day
DU-145 = test: Antitumor activity against human DU-145 cells xenografted in BALB/c nude mouse assessed as reduction in tumor growth index at 60 mg/kg, ip measured upto 30 days (reference value: 1110.1 +/- 136.7 %); format: functional; design: scale not given: the % may be the effect or the level left; conditions: time <= 30 day
[2] = Acute toxicity in Wistar rat assessed as lethal dose administered intravenously as pluronic F127 formulation and measured for 14 days; conditions: in vivo, route iv, time 14 day
[3] = Aqueous solubility of compound; format: physicochemical
[4] = Acute toxicity in ICR mouse assessed as maximum tolerated dose administered intravenously as pluronic F127 formulation and measured for 14 days; conditions: in vivo, route iv, time 14 day
[5] = Acute toxicity in ICR mouse assessed as hypertrophied adrenal gland at 183 to 960 mg/kg, iv administered as pluronic F127 formulation and measured for 14 days; format: organism-based; conditions: in vivo, 336 h, dose 183-960 mg/kg, time 14 day
[6] = Acute toxicity in Wistar rat assessed as kidney lesion at 15 to 279 mg/kg, iv administered as pluronic F127 formulation and measured for 14 days; format: organism-based; conditions: in vivo, 336 h, dose 15-279 mg/kg, time 14 day
[7] = Chronic toxicity in rat assessed as increase in relative lung mass administered intravenously as pluronic F127 formulation for 4 intervals of 21 days and observed 3 weeks post last injection relative to control; conditions: in vivo, iv, 2544 h, time 106 day
[8] = Chronic toxicity in rat assessed as decrease in erythrocytes in blood administered intravenously as pluronic F127 formulation at 4 intervals for 21 days and observed 3 weeks post last injection relative to control; format: cell-based; conditions: iv, 2544 h, time 106 day

Structure (SMILES): CC(=O)O[C@@]12CO[C@@H]1C[C@H](O)[C@@]1(C)C(=O)[C@H](O)C3=C(C)[C@@H](OC(=O)[C@H](OC(=O)CCCc4cn(CCCNC(=O)[C@H](Cc5ccc(O)cc5)NC(=O)[C@H](Cc5ccccc5)NC(=O)CCC(=O)NCCCCCC(=O)N(CCCC[C@H](NC(=O)N[C@@H](CCC(=O)O)C(=O)O)C(=O)O)Cc5cccc(Cl)c5)nn4)[C@@H](NC(=O)OC(C)(C)C)c4ccccc4)C[C@@](O)([C@@H](OC(=O)c4ccccc4)[C@H]21)C3(C)C
- Activity [1]: Toxic
- Activity (DU-145): 150.9%
- LD50 at 336 h [2]: 58 mg/kg and 30 µmol/kg
- solubility [3]: 130 µg/mL (≈ 66.6 µM)
- MTD at 336 h [4]: 183 mg/kg
- Activity [5]: Toxic
- Activity [6]: Toxic
- Activity [7]: Toxic
- Activity [8]: Toxic

— ChEMBL document CHEMBL5131389, “PSMA-targeted small-molecule docetaxel conjugate: Synthesis and preclinical evaluation” (Eur J Med Chem, 2022)
